Reference: patent publication US9062321B2 (priority 2004, dated 2015)

Experiments:
BuChE [1] = target: T1, BuChE (Homo sapiens, UniProt P06276); assay: Sensitivity of BuChE to cholinesterase inhibitors (background); type: biochemical; conditions: ratio of Ki BuChE to Ki AChE
BuChE [2] = target: T1, BuChE; conditions: in words; cited from earlier work

T1 sequence (P06276 29-602): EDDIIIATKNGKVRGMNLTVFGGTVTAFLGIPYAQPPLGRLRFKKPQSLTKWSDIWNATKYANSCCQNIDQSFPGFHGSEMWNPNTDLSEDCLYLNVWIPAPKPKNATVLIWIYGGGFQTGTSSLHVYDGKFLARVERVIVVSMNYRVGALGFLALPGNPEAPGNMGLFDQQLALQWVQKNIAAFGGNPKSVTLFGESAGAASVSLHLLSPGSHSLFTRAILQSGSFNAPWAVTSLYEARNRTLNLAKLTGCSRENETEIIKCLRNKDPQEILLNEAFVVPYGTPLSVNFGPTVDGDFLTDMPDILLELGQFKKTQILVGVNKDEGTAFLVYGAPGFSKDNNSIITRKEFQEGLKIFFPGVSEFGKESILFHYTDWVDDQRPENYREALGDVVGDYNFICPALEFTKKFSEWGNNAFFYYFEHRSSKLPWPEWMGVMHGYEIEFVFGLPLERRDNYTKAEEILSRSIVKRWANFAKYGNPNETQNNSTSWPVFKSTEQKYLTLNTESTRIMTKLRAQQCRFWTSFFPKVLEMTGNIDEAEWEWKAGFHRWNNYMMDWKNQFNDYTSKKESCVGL

SMILES | difference in sensitivity of BuChE compared to AChE (BuChE [1]) [fold] | sensitivity of BuChE to the inhibitor compared with AChE (BuChE [2])
C=CC[N+](C)(C)c1ccc(CCC(=O)CCc2ccc([N+](C)(C)CC=C)cc2)cc1 [BW284c51, 1,5-bis(4-allyldimethylammoniumphenyl)pentan-3-one dibromide] | 1400 | 
CC(C)NP(=O)(NC(C)C)OP(=O)(NC(C)C)NC(C)C [Iso-OMPA, tetraisopropyl pyrophosphoramide] |  | much more sensitive
